Data published in patent US20060014723A1, “Anti-parasitic uses of borinic acid complexes” (priority 2004, published 2006).
Values after ≈ are worked out from the molar mass of the structure shown.

Key:
[1] = test system: Trypanosoma cruzi Tulahuen C2C4 strain; experiment: Chagas disease in vitro screening model (beta-galactosidase strain in L-6 cells); format: cell-based
How it was run: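 L-6 rat myoblasts in RPMI 1640/10% FBS at 37 °C were infected with 5×10^3 lacZ-expressing T. cruzi Tulahuen C2C4 trypomastigotes. CPRG/Nonidet substrate was read at 540 nm, and IC50 came from sigmoidal curves.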

[2] = test system: P. Berghei; experiment: In vivo efficacy mouse malaria model; conditions: 2×/day
Description: Test compounds will be compared to chloroquine, artemisinin, mefloquine as follows: NMRI mice, SPF, females, […]
From a donor mouse with approximately 30% parasitemia, heparinized blood is taken and diluted in physiological saline to 10^8 parasitized erythrocytes per mL. An aliquot of 0.2 mL (=2×10^7 parasitized erythrocytes) of this suspension is injected intravenously (i.v.) into experimental groups of 4 mice.
Two-to-four hours post-infection, the experimental groups are treated with a single dose by the subcutaneous or the oral route. The compounds are prepared at an appropriate concentration, as a solution or suspension containing 3% ethanol and 7% Tween 80 or in SSV (standard suspending vehicle): […]
Twenty-four hours after the last treatment ([…]) blood smears from all animals are prepared and stained with Giemsa. Parasitemia is determined microscopically by counting 400 red blood cells (“rbcs”), for low parasitemias (<1%) up to 4,000 rbc's have to be counted. The difference between the mean value of the control group (taken as 100%) and those of the experimental groups is calculated and expressed as % Reduction where: [formula]
Additional smears will be taken on day 5 and day 6; and parasitemia will be determined and the activity calculated. Survival time (in days) is recorded, and the mean survival time is calculated. Adverse effects are recorded. Four mice/compound and a minimum of 12 mice/study (vehicle and positive controls run concurrently) are used.

| SMILES | IC50 ([1]; Trypanosoma cruzi, TULAHUEN, L6, read-out: T. cruzi IC50) | % of Activity ([2]; 4 × 100 mg/kg, s.c.) | Mean Survival ([2]; 4 × 100 mg/kg, s.c.) | Parasitized RBC over 100 % of Control ([2]; 4 × 100 mg/kg, s.c.) | Parasitized RBC over 100 Mean ([2]; 4 × 100 mg/kg, s.c.) | % of Activity ([2]; 4 × 300 mg/kg, p.o.) | Mean Survival ([2]; 4 × 300 mg/kg, p.o.) | Parasitized RBC over 100 % of Control ([2]; 4 × 300 mg/kg, p.o.) | Parasitized RBC over 100 Mean ([2]; 4 × 300 mg/kg, p.o.) | T. cruzi IC50 [1] | % of Activity ([2]; 4 × 30 mg/kg, s.c.) | Mean Survival ([2]; 4 × 30 mg/kg, s.c.) | Parasitized RBC over 100 % of Control ([2]; 4 × 30 mg/kg, s.c.) | Parasitized RBC over 100 Mean ([2]; 4 × 30 mg/kg, s.c.) | % of Activity ([2]; 4 × 100 mg/kg, p.o.) | Mean Survival ([2]; 4 × 100 mg/kg, p.o.) | Parasitized RBC over 100 % of Control ([2]; 4 × 100 mg/kg, p.o.) | Parasitized RBC over 100 Mean ([2]; 4 × 100 mg/kg, p.o.) |
| --- | --- | --- | --- | --- | --- | --- | --- | --- | --- | --- | --- | --- | --- | --- | --- | --- | --- | --- |
| COc1ccc(B(Oc2cccc3cccnc23)c2cccc(Cl)c2)cc1OC [Compound 27, (3-Chlorophenyl)(3,4-dimethoxyphenyl)borinic acid quinolin-8-yl ester] | 3.2 mg/L (≈ 7.93 µM) | 68.09% | 18.7 days | 31.91% | 7.9 | 56.94% | 15.7 days | 43.08% | 10.7 | – | – | – | – | – | – | – | – | – |
| CC1(C)COC(c2cccc(B(Oc3cccc4cccnc34)c3cccc(C4=NC(C)(C)CO4)c3)c2)=N1 [Compound 13, Bis[3-(4,5-dihydro-4,4-dimethyloxazol-2-yl)phenyl]borinic acid 8-hydroxyquinoline ester] | – | – | – | – | – | – | – | – | – | 8.7 mg/L | 52.31% | 15.3 days | 47.09% | 11.9 | 81.29% | 12.7 days | 18.78% | 4.7 |
